For the test, the system named is PDE4. Description: Inhibition of PDE4 (enzyme purified from U937 human monocytic cells). The format is biochemical. The following applies: 1 μM cAMP plus 10 nM [3H]-cAMP, 45 min at 30° C. The procedure:
Phosphodiesterase 4 enzyme was purified from U937 human monocytic cells by gel filtration chromatography, and phosphodiesterase reactions were carried out as previously described. See, e.g., Muller et al., Bioorg. Med. Chem. Lett., 1998, 8(19): 2669-2674. Briefly, reactions were carried out in 96-well deep-well plates in 50 mM Tris HCl pH 7.5, 5 mM MgCl2, 1 μM cyclic adenosine monophosphate (cAMP), plus 10 nM [^3H]-cAMP for 45 min at 30° C. The reactions were terminated by boiling, treated with 1 mg/ml snake venom, and separated using AG-1X8 ion exchange resin (BioRad). Reactions consumed less than 15% of available substrate. […] Compound B inhibited PDE4 with an IC50 of 100 nM.

Values joined by “and” are separate entries in the source; they are usually repeats but may differ in a detail not shown here. Identical values can stand only once.

The term IC50 denotes the concentration that inhibits the measured activity by half.

Regarding `CCOc1cc([C@@H](CS(C)(=O)=O)N2C(=O)c3cccc(NC(C)=O)c3C2=O)ccc1OC` [Compound A1, (S)—N-(2-(1-(3-ethoxy-4-methoxyphenyl)-2-(methylsulfonyl)ethyl)-1,3-dioxoisoindolin-4-yl)acetamide], the half-maximal inhibitory concentration (IC50) is 73.5 nM and ~74 nM.

As for `CCOc1cc([C@@H](CS(C)(=O)=O)N2Cc3cccc(NC(=O)C4CC4)c3C2=O)ccc1OC` [Compound B, (S)—N-(2-(1-(3-ethoxy-4-methoxyphenyl)-2-(methylsulfonyl)ethyl)-3-oxoisoindolin-4-yl)cyclopropanecarboxamide], the IC50 is 100 nM and ~100 nM.

The values are drawn from patent US9480676B2, “Use of PDE4 inhibitors and combinations thereof for the treatment of cystic fibrosis” (Celgene Corporation, priority 2014, dated 2016).
